Laboratory results published in article PMC10817170, “Effect of an NHE3 inhibitor in combination with an NPT2b inhibitor on gastrointestinal phosphate absorption in Rodent models” (PLOS ONE, 2024).

Key:
[1] = test system: acute phosphate uptake into plasma; assay: Acute radiolabeled phosphate uptake into plasma in rats; type: in vivo
Description: A dosing solution for a 10 mg/kg dose of LY3304000 using a 10 mL/kg dosing volume was made in 1% HEC vehicle. The subsequent dosing solutions for 3, 1, 0.3, 0.1, 0.03, 0.01, 0.003, and 0.001 mg/kg were prepared by serial dilutions with HEC. A Radiolabeled Phosphate Dosing Solution was made in a 16.25 mM Na2HPO4, 0.9% saline, pH 7.4, solution with the addition of about 2.5 μCi/mL radioactive phosphate (H3^33PO4, PerkinElmer) and filtered before dosing. Following 12-hour fasting with access to water, male SD rats were orally dosed at 10 mL/kg with either vehicle or varying doses of LY3304000. Fifteen minutes later, 2 mL of the Radiolabeled Phosphate Dosing Solution was dosed by oral gavage. This dose of phosphate was chosen because it approximates the rat equivalent to the amount of bioavailable phosphate in a human meal, 4 mg/kg phosphorus, or 320 mg phosphorus for an 80 kg person on a phosphate restricted diet. Fifteen minutes later, blood was collected by cardiac stick, and plasma was prepared. Radioactivity (dpm) in 50 μL plasma was measured by scintillation counting. To determine the total radioactivity dosed to each rat, the radioactivity in two 10-μL samples of the Radiolabeled Phosphate Dosing Solution was measured by scintillation counting. To calculate the total radioactivity recovered in plasma, it was assumed that total blood volume constitutes about 60% of the body weight and plasma constitutes about 55% of the total blood. The mole amount of phosphate uptake was calculated as the percentage of administered radiolabeled phosphate recovered in the plasma of vehicle or LY3304000 treated rats multiplied by total phosphate amount in the radiolabeled phosphate dosing solution. ED50 values were then determined with a 4-parameter logistic curve fitting model using GraphPad Prism. A 15-minute time point, post phosphate dosing, was chosen for collecting blood in the acute phosphate uptake studies in rats and mice (see below) to capture the initial rate of phosphate absorption. We wanted to avoid measurements at longer time points when plasma radiolabeled phosphate appears to be at a steady state.

[2] = test system: acute phosphate uptake into plasma; assay: Acute phosphate uptake in rats, LY3304000 with fixed 1.2 mg/kg LY3358966; type: in vivo
Description: NHE3 inhibitor LY3304000 and NPT2b inhibitor LY3358966 SDD were used in combination to assess their effect on phosphate absorption in rats. To make the LY3358966 dosing solution, an appropriate amount of LY3358966 SDD was weighed for a 1.2 mg/kg API dosing solution with 10 mL/kg dosing volume and dissolved in water. To make the LY3304000 dosing solution, an appropriate amount of LY3304000 was weighed for a 10 mg/kg dose with 10 mL/kg dosing volume and dissolved in 1% HEC vehicle. The subsequent dosing solutions for 3, 1, 0.3, 0.1, 0.03, 0.01, 0.003, and 0.001 mg/kg LY3304000 were prepared by serial dilutions with 1% HEC. Following 12-hour fasting, male SD rats were orally dosed at 10 mL/kg with 1% HEC vehicle, 1.2 mg/kg LY3358966 or increasing doses of LY3304000 with a fixed, 1.2 mg/kg dose of LY3358966. In the vehicle group, the animals were dosed first with 1% HEC immediately followed by water. In the LY3358966 alone group, the animals were first dosed with 1% HEC immediately followed by LY3358966. In the combination groups, the animals were dosed first with LY3304000 immediately followed by LY3358966. Fifteen minutes later, 2 mL Radiolabeled Phosphate Dosing Solution was orally dosed. Fifteen minutes later, blood was collected by cardiac stick, and plasma was prepared. Radioactivity (dpm) in 50-μL plasma was measured by scintillation counting. To measure the total radioactivity dosed to each rat, the radioactivity in two 10-μL samples of the Radiolabeled Phosphate Dosing Solutions was measured by scintillation counting. The mole amount of phosphate uptake was calculated as described above to determine acute phosphate uptake.

**Q.** For `CN1Cc2c(Cl)cc(Cl)cc2[C@H](c2cccc(S(=O)(=O)NCCOCCOCCN/C(=N\C(N)=O)NCCCCN/C(=N/C(N)=O)NCCOCCOCCNS(=O)(=O)c3cccc([C@@H]4CN(C)Cc5c(Cl)cc(Cl)cc54)c3)c2)C1.Cl.Cl` [LY3304000, (Z)-[[4-[[(Z)-N’-carbamoyl-N-[2-[2-[2-[[3-[(4S)-6,8-dichloro-2-methyl-3,4-dihydro-1H-isoquinolin-4-yl]phenyl]sulfonylamino]ethoxy]ethoxy]ethyl]carbamimidoyl]amino]butylamino]-[2-[2-[2-[[3-[(4S)-6,8-dichloro-2-methyl-3,4-dihydro-1H-isoquinolin-4-yl]phenyl]sulfonylamino]ethoxy]ethoxy]ethylamino]methylene]urea dihydrochloride], which “maximal inhibition of phosphate uptake” value [1] is on record?
**A.** Its value is 37%.

**Q.** And the ED50 ([1]; Rattus norvegicus, po, 0.25 h, oral, plasma 15 min post 33P phosphate, read-out: ED50 (decrease of phosphate uptake))?
**A.** The ED50 was 0.04 mg/kg.

**Q.** What about the “Emax, Pi uptake” value ([1]; curve fit) of the same compound?
**A.** Its value is 266.8 nmol.

**Q.** And the “ED50 (decrease of phosphate uptake)” value ([1]; oral, plasma 15 min post 33P phosphate)?
**A.** The value was 0.041 mg/kg.

**Q.** And the “radiolabeled phosphate in plasma, maximal determined decrease” value ([1]; vehicle 416 nmoles)?
**A.** The value was 264 nmol.

**Q.** What about the “acute phosphate uptake, % of vehicle control” value ([2]; highest dose of LY3304000 plus 1.2 mg/kg LY3358966) of the same compound?
**A.** The value was 30%.

**Q.** What about the “acute phosphate uptake into plasma” value ([2]; highest dose of LY3304000 tested plus 1.2 mg/kg LY3358966, vehicle 710 nmoles) of the same compound?
**A.** Its value is 212 nmol.
